# Data reported in patent US8541460B2, “PDK-1/Akt signaling inhibitors” (The Ohio State University, priority 2003, dated 2013).
# Assays:
# SF-295 = experiment: NCI DTP cell line screen (SRB), CNS Cancer; format: cell-based
# Protocol: (§1) Screening of compounds 70 and 71 against several cancer cell lines The human tumor cell lines of the cancer screening panel are grown in RPMI 1640 medium containing 5% fetal bovine serum and 2 mM L-glutamine. For a typical screening experiment, cells are inoculated into 96 well microtiter plates in 100 μL at plating densities ranging from 5,000 to 40,000 cells/well depending on the doubling time of individual cell lines. After cell inoculation, the microtiter plates are incubated at 37° C., 5% CO2, 95% air and 100% relative humidity for 24 h prior to addition of experimental drugs.
# (§2) After 24 h, two plates of each cell line are fixed in situ with TCA, to represent a measurement of the cell population for each cell line at the time of drug addition (Tz). Experimental drugs are solubilized in dimethyl sulfoxide at 400-fold the desired final maximum test concentration and stored frozen prior to use. At the time of drug addition, an aliquot of frozen concentrate is thawed and diluted to twice the desired final maximum test concentration with complete medium containing 50 μg/ml gentamicin. Additional four, 10-fold or ½ log serial dilutions are made to provide a total of five drug concentrations plus control. Aliquots of 100 μl of these different drug dilutions are added to the appropriate microtiter wells already containing 100 μl of medium, resulting in the required final drug concentrations.
# (§3) Following drug addition, the plates are incubated for an additional 48 h at 37° C., 5% CO2, 95% air, and 100% relative humidity. For adherent cells, the assay is terminated by the addition of cold TCA. Cells are fixed in situ by the gentle addition of 50 μl of cold 50% (w/v) TCA (final concentration, 10% TCA) and incubated for 60 minutes at 4° C. The supernatant is discarded, and the plates are washed five times with tap water and air dried. Sulforhodamine B (SRB) solution (100 μl) at 0.4% (w/v) in 1% acetic acid is added to each well, and plates are incubated for 10 minutes at room temperature. After staining, unbound dye is removed by washing five times with 1% acetic acid and the plates are air dried. Bound stain is subsequently solubilized with 10 mM trizma base, and the absorbance is read on an automated plate reader at a wavelength of 515 nm. For suspension cells, the methodology is the same except that the assay is terminated by fixing settled cells at the bottom of the wells by gently adding 50 μl of 80% TCA (final concentration, 16% TCA). Using the seven absorbance measurements [time zero, (Tz), control growth, (C), and test growth in the presence of drug at the five concentration levels (Ti)], the percentage growth is calculated at each of the drug concentrations levels. Percentage growth inhibition is calculated as: [(Ti−Tz)/(C−Tz)]×100 for concentrations for which Ti>/=Tz [(Ti−Tz)/Tz]×100 for concentrations for which Ti<Tz
# (§4) Three dose response parameters are calculated for each experimental agent. […] The drug concentration resulting in total growth inhibition (TGI) is calculated from Ti=Tz. […] Values are calculated for each of these three parameters if the level of activity is reached; however, if the effect is not reached or is exceeded, the value for that parameter is expressed as greater or less than the maximum or minimum concentration tested.
# (§5) The methods described were used to test compounds 70 and 71 on a panel of sixty cell lines under a screening service provided by the Developmental Therapeutics Program at the National Institutes of Health. Shown in FIG. 1C are 1, RPMI-8226 leukemia cells; 2; NCI-H322M non-small cell lung cancer cells; 3, HT29 colon cancer cells; 4, U251 CNS cancer cells; 5, SK-MEL-28 melanoma cancer cells; 6, SK-OV-3 ovarian cancer cells; 7, RXF 393 renal cancer cells; 8, PC-3 prostate cancer cells; 9, MDA-MB-231 breast cancer cells.
# SF-268 = experiment: NCI DTP cell line screen (SRB), CNS Cancer; format: cell-based
# Protocol: as §1, §2, §3, §4, §5
# recombinant PDK-1 = molecular target: T1, recombinant PDK-1 (Homo sapiens, UniProt O15530); experiment: PDK-1 kinase activity (Upstate kit, cell-free); format: biochemical
# T1 construct: purchased Upstate (Lake Placid, N.Y.)
# T1 sequence (O15530 1-556): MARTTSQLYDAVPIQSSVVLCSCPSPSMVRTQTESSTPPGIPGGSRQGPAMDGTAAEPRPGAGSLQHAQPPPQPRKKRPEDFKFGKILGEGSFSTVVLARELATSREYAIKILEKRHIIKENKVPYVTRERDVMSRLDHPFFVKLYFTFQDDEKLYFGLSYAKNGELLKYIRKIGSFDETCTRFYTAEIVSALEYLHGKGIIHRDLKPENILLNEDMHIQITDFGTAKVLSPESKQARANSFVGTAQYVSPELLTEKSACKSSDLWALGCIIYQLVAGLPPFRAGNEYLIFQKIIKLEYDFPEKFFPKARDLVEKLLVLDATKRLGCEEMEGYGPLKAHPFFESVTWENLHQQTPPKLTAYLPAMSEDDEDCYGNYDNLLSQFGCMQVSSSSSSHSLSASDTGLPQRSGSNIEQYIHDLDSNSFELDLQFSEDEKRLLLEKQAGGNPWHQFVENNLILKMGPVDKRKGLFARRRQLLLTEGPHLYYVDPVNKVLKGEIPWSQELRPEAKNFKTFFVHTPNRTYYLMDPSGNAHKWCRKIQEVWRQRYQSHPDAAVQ
# Protocol: PDK-1 kinase activity This in vitro assay was performed using a PDK-1 kinase assay kit (Upstate, Lake Placid, N.Y.) according to the vendor's instructions. This cell-free assay is based on the ability of recombinant PDK-1, in the presence of DMSO vehicle or the test agent, to activate its downstream kinase serum- and glucocorticoid-regulated kinase (SGK.) which, in turn, phosphorylates the Akt/SGK-specific peptide substrate RPRAATF with [γ-^32]-ATP. […] The reported values represent the means of two independent determinations.
structure (smiles),measurement,setting,value
"NCC(=O)Nc1ccc(-n2nc(C(F)(F)F)cc2-c2ccc3c(ccc4ccccc43)c2)cc1 [Compound 70, 2-Amino-N-{4-[5-(2-phenanthrenyl)-3-(trifluoromethyl)-1H-pyrazol-1-yl]-phenyl}-acetamide]",TGI,SF-295,3.71E−06
same,Percent Growth,SF-295; Log10 Concentration −4.0,−32%
same,Percent Growth,SF-295; Log10 Concentration −5.0,−47%
same,Percent Growth,SF-295; Log10 Concentration −6.0,62%
same,Percent Growth,SF-295; Log10 Concentration −7.0,96%
same,Percent Growth,SF-295; Log10 Concentration −8.0,94%
same,TGI,SF-268,4.16E−06
same,Percent Growth,SF-268; Log10 Concentration −4.0,26%
same,Percent Growth,SF-268; Log10 Concentration −5.0,−33%
same,Percent Growth,SF-268; Log10 Concentration −6.0,54%
same,Percent Growth,SF-268; Log10 Concentration −7.0,72%
same,Percent Growth,SF-268; Log10 Concentration −8.0,84%
same,increase in potency over compound 59 (PDK-1 inhibition),recombinant PDK-1,two
